Tests used:
Female BALB/c mice [1] = assay: In vivo safety of hEPO mRNA lipid nanoparticle: serum alanine aminotransferase (ALT) enzyme activity; conditions: hEPO mRNA LNP, 300 μL IV, serum 12 h after injection; FIG. 1
Method: A human erythropoietin mRNA (hEPO mRNA)-encapsulating lipid nanoparticle formulation was prepared according to the method as described in Experimental Example 1, with replacing the luciferase mRNA (Fluc mRNA) with human erythropoietin mRNA (hEPO mRNA), with a concentration of hEPO mRNA of 0.2 g/L, a mass ratio of hEPO mRNA to Lipid of 1:10, a particle size of 90-130 nm, and an encapsulation efficiency of above 90% or higher.
Animal preparation: Female BALB/c mice of 6-8 weeks old were selected and raised in an SPF grade breeding room. Animal testing was conducted in strict accordance with the guidelines of national health institutions and animal ethics requirements.
In vivo Delivery: Prior to injection of the test LNP formulations, the LNP formulations were gently and repeatedly inverted to thoroughly mix the formulation samples. A corresponding amount of the formulation samples were aspirated with a 1 ml insulin syringe, and the LNP formulations were injected by tail vein injection (IV), with 5 mice per formulation. Each mouse was injected with 300 μL of the human erythropoietin mRNA (hEPO mRNA)-encapsulating lipid nanoparticle formulation.
Serum acquisition: Blood samples of mice were collected 12 h after injection, placed in tubes without anticoagulants, and naturally coagulated at room temperature for 30-60 min, and then centrifuged at a speed of 3500 rpm for 10 min to obtain the supernatant, which was the serum.
The detection of alanine transaminase was carried out according to instructions of the kit (Nanjing Jiancheng Bioengineering Institute, Catalog. No. C009-2-1), and a standard curve was made using the standard provided in the kit. D-PBS was used in the experiment, which was purchased from Sangon Biotech (Shanghai) Co., Ltd., Catalog No. E607009-0600.
The method of detection of enzyme activity of alanine aminotransferase (ALT) in serum of the mice is as follows:
• (1) Enzymatic reaction: 0, 2, 4, 6, 8 and 10 μL of […] sodium pyruvate standard solution were sequentially added to 5 μL of 0.1 mol/L phosphate buffer, and the volume was supplemented to 25 μL with a matrix solution, and repeatedly aspirating and spitting with a pipette for mixing well; • (2) Addition reaction: 20 μL 2,4-dinitrophenylhydrazine solution was added to all reaction wells in (1), mixed by aspirating and spitting, and then placed in an incubator at 37° C. to react for 20 min; • (3) Developing: 200 μL of 0.4 mol/L NaOH solution was added to all reaction wells in (2) to stop the reaction, mixed by aspirating and spitting, and incubated at room temperature for 15 min. The OD value of each well was measured at 510 nm in a microplate reader; and • (4) Data processing of standard curve: The corresponding absolute OD value for each well was obtained by subtracting the OD value for 0 μL well from the measured OD value for each well, the corresponding ALT Karmen units being 0, 28, 57, 97, 150 and 200 U/L, respectively. The standard curve was obtain by taking the absolute OD value as the abscissa and the corresponding Karmen unit as the ordinate.
• (1) Reagent preparation: an ALT matrix solution was placed in an incubator at 37° C. for preheating; • (2) Enzymatic reaction: 5 μL diluted serum was aspirated and added to a 96-well plate, then 20 μL matrix solution was added to the corresponding sample well and mixed by repeatedly aspirating and spitting to avoid bubbling, and then placed in an incubator at 37° C. for 30 min; • (3) Addition reaction: 20 μL 2,4-dinitrophenylhydrazine was added to all reaction wells in (2), mixed by aspirating and spitting, and then reacted in an incubator at 37° C. for 20 min; • (4) Developing: 200 μL of 0.4 mol/L NaOH solution was added to all reaction wells in (3) to stop the reaction, mixed by aspirating and spitting, and then incubated at room temperature for 15 min. […]

[2] = Preparation and characterisation of mRNA-encapsulating lipid nanoparticle (encapsulation efficiency, particle size); type: physicochemical; conditions: LNP encapsulating Fluc mRNA; Lipid:DSPC:CHO-HP:M-DMG-2000 48:10:40.5:1.5
Procedure, shortened: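 Fluc mRNA in sodium acetate buffer mixed with ethanolic amino lipid:DSPC:CHO-HP:M-DMG-2000 (48:10:40.5:1.5 molar) by microfluidics, mRNA:lipid mass ratio 1:10, then dialysed 2 h against Tris-8% sucrose and 0.22 μm filtered. Final mRNA 0.2 g/L; particle size and encapsulation efficiency measured.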

Female BALB/c mice [3] = assay: Humoral immunity test for total binding IgG antibody (ELISA, SARS-COV-2 antigen protein) in serum of immunized mice; type: in vivo; conditions: IN002.5.1 mRNA LNP, 50 μL IM, serum on 14th day after immunization; FIG. 5-6

SMILES: CCCCCCCOC(=O)CCN(CCCN(C)C)C(=O)OC(CCCCCCCCC(=O)OC(CCCCCC)CCCCCC)CCCCCCCCC(=O)OC(CCCCCC)CCCCCC [Compound 267]
- ALT enzyme activity (Karmen unit) compared to ALC0315 and SM-102 (Female BALB/c mice [1]): significantly lower ALT enzyme activity
- Encapsulation efficiency [2]: 93.13%

SMILES: CCCCCCC(CCCCCC)OC(=O)CCCCCCCCC(CCCCCCCCC(=O)OC(CCCCCC)CCCCCC)OC(=O)N(CCCN(C)C)CCC(=O)OCCCC [Compound 264]
- Humoral immunity effect (IgG titer) compared to ALC0315 (Female BALB/c mice [3]): better humoral immunity effect
- ALT enzyme activity (Karmen unit) compared to ALC0315 and SM-102 (Female BALB/c mice [1]): significantly lower ALT enzyme activity
- Encapsulation efficiency [2]: 94.12%

SMILES: CCCCCCCOC(=O)CN(CCCN(C)C)C(=O)OC(CCCCCCCCC(=O)OC(CCCCCC)CCCCCC)CCCCCCCCC(=O)OC(CCCCCC)CCCCCC [Compound 273]
- Humoral immunity effect (IgG titer) compared to ALC0315 (Female BALB/c mice [3]): better humoral immunity effect
- ALT enzyme activity (Karmen unit) compared to ALC0315 and SM-102 (Female BALB/c mice [1]): significantly lower ALT enzyme activity
- Encapsulation efficiency [2]: 87.42%

SMILES: CCCCCCOC(=O)CN(CCCN(C)C)C(=O)OC(CCCCCCCCC(=O)OC(CCCCCC)CCCCCC)CCCCCCCCC(=O)OC(CCCCCC)CCCCCC [Compound 272]
- ALT enzyme activity (Karmen unit) compared to ALC0315 and SM-102 (Female BALB/c mice [1]): significantly lower ALT enzyme activity
- Encapsulation efficiency [2]: 93.96%

SMILES: CCCCCCC(CCCCCC)OC(=O)CCCCCCCCC(CCCCCCCCC(=O)OC(CCCCCC)CCCCCC)OC(=O)N(CCCN(C)C)CC(=O)OCCCC [Compound 270]
- Humoral immunity effect (IgG titer) compared to ALC0315 (Female BALB/c mice [3]): better humoral immunity effect
- ALT enzyme activity (Karmen unit) compared to ALC0315 and SM-102 (Female BALB/c mice [1]): significantly lower ALT enzyme activity
- Encapsulation efficiency [2]: 93.46%

Reference: patent publication US20250250227A1, “AMINO LIPID COMPOUND, PREPARATION METHOD THEREFOR, COMPOSITION THEREOF AND USE THEREOF” (SHENZHEN SHENXIN BIOTECHNOLOGY CO., LTD., priority 2022, published 2025)
